For data set [1] the following is noted: warming in alcohol; cited from earlier work.
In data set [2] the test system is suppression of exploratory locomotor behavior by punishment. Kind of data set: Mouse activity suppression test (MAST). It counts as in vivo. To be noted: oral, footnote *ED20%. The text has this:
(§1) Standard procedures for detecting and comparing the tranquilizer, muscle-relaxant, and sedative activity of compounds in this series for which there is a correlation with human efficacy are the following: pinna reflex tests, antipentylenetetrazole test, rat activity suppression test (RAST), muscle relaxant (anti-straub tail) test, and mouse activity suppression test (MAST).
The Mouse Activity Suppression Test (MAST) is a model system designed to detect compounds with possible anti-anxiety activity in humans. […] The punishment, an electric shock applied through the mouse's paws, quickly extinguishes normal behavior.
The test procedure is modified from Boissier, et al., European J. Pharm., 4, 145-151 (1968). Female white mice, fasted 16-22 hours, are randomly distributed to fiberglass holding boxes. Mice in groups of 10-20 are dosed orally and returned to their holding boxes until test time. Test drug suspensions or solutions are prepared by sonication in 1% Methocel®. Typical dose ranges include 0.5, 1, 2, and 4 mg/k or 1, 3, 9, 27, 81 mg/kg plus a vehicle control and are selected to include one dose at which an effect such as sedation, stimulation, muscle weakness or analgesia was seen.
The test apparatus is an opaque, black plastic box with a clear lid and a stainless steel grid floor. The floor of the test box is marked off into four squares of equal size.
After dosing, a mouse is gently place in one corner of the testing box and during the next minute each time the mouse makes a full crossing from one square section of the box to another the floor is electrified with 0.4 ma current for 2.0 seconds.
The number of shocks received by each mouse is recorded and the mean number of shocks/dose (X) is determined. When X drug at any dose is statistically greater than X controls (Student's t test), antagonism of suppression obtains and the drug is presumed to have anti-anxiety activity.
(§2) Potency in the antipentylenetetrazole (PTZ), the MAST, and the RAST tests indicates a potent antianxiety agent. Great potency for blockade of the mouse auditory pinna reflex with little or no effect on tactile pinna reflex is characteristic of minor tranquilizers.

For another data set, the system named is auditory pinna reflex. Kind of data set: Auditory pinna reflex test (mouse). The data set is classed as in vivo. To be noted: 0.5 h, oral (intubated), 30 minutes. The procedure: as §1
(§3) Fasted female white mice, 5 per dose are intubated with drug at 4, 12, 36, 108 and 324 mg/kg in 1% Methocel®^- 1.25% Tween 80®, at 10 ml/kg. The auditory and tactile pinna are tested at 0.5, 2, 5 and 24 hours.
The mouse is placed on a horizontal bar 9 cm from a Galton whistle adjusted for 13 Kc. Failure to flatten the ears during one or 2 short bursts of sound constitutes loss of auditory pinna reflex.
as §2

For a further data set, the system named is tactile pinna reflex. Kind of data set: Tactile pinna reflex test (mouse). It counts as in vivo. To be noted: 0.5 h, oral (intubated), 30 minutes. As for the experimental part:
as §1, §3
The mouse is held by the tail and the hairs inside the right ear are touched by the fine wire stylus from a 27 gauge needle. Failure of the mouse to twitch or move the head constitutes loss of the tactile pinna reflex.
as §2

In data set [3] the test system is line crossings suppressed by shock. Kind of data set: Rat activity suppression test (RAST). It counts as in vivo. To be noted: 0.5 h, oral (intubated), 30 minutes, dose which would increase crossings 50% over controls.
Description: as §1
The test apparatus consists of a circular cage with lid and with a floor of electrifiable steel bars. D.C. shock current is supplied to the bars such that touching any 2 alternate bars shocks the rat. The floor is marked to yield 4 equal pie-shaped sectors.
Fasted male white rats, 10 per dose are intubated with drug as described above for mice. Thirty minutes after dosing a rat is placed in the test apparatus and is allowed 30 seconds to transverse 25% of the floor area after which he receives a shock. The rat is allowed 5 seconds to recover from the shock, then its "line crossings" are counted for 60 seconds. The mean number of crossings per rat for each dose are determined and are compared to the mean number of crossings of the vehicle treated controls. ED50 %, the dose which would increase the number of crossings 50% over controls, is determined graphically.
as §2

Data set [4] deals with PTZ-induced clonic convulsions. Kind of data set: Antipentylenetetrazole (PTZ) test. It counts as in vivo. To be noted: mouse; for ED50: 0.5 h, oral (intubated), 30 minutes before PTZ 40 mg/kg iv, read-out: Anti-PTZ, mouse ED50. As for the experimental part:
as §1
Fasted female white mice, 10 per dose are intubated with drug in vehicle as above at doses such as 0, 1, 3, 9, 27 and 81 mg/kg. Thirty minutes later the mice are dosed intravenously with PTZ (Metrazol®^1) at 40 mg/kg (ED98 for clonic convulsions). Dosed animals which remain on a 4"×4" platform for 20 seconds are considered protected. Quantal ED50 's are calculated by the moving average method.
1 Original brand of pentylenetetrazole; sterile 10% aqueous solution for parenteral injection, Knoll Pharmaceutical Company.
as §2

In data set [5] the test system is morphine-induced Straub tail. Briefly: Muscle relaxant (anti-Straub tail) test. To be noted: 0.5 h; mouse, oral (intubated), 30 minutes; blockade of morphine-induced Straub tail (53.7 mg/kg sc). The data set is classed as in vivo.
Description: as §1
Fasted female white mice, 5 per dose are intubated with test drug. Twenty-five minutes later morphine sulfate is given subcutaneously at 53.7 mg/kg. Thirty minutes after test drug the mice are observed for presence of Straub tail. Quantal ED50 values for blockade of morphine-induced Straub tail are calculated.
as §2

For data set [6] the following is noted: man and other animals; cited from earlier work.
Setting [7] is: 0.5 h, 30 minutes, read-out: MAST, ED20%.

The source of these data is US4246270A, “3-Fluorobenzodiazepines and compositions and uses thereof” (E. I. Du Pont de Nemours and Company, priority 1976, dated 1981).

By ED50 is commonly meant the dose at which the effect has come halfway, by size or by number of responders.

Read-outs that look alike come from different tables or passages of the source.

In the case of `O=C1Nc2ccc(Cl)cc2C(c2ccccc2)=NC1Cl` (stereo not drawn) [3,7-dichloro-5-phenyl-1,3-dihydro-2H-1,4-benzodiazepin-2-one], the “stability (3-chloro derivative)” value in data set [1] is “extremely reactive: mere warming in alcohol caused decomposition”.

`CNC1=Nc2ccc(Cl)cc2C(c2ccccc2)=[N+]([O-])C1` [Chlorodiazepoxide, reference compound]: the ED20 in data set [2] (setting [7]) was determined as 8.5 mg/kg. Moreover, the ED50 in the data set on auditory pinna reflex was determined as 70 mg/kg; with tactile pinna reflex, 320 mg/kg; in data set [3], 6 mg/kg; in data set [4] it was 7.5 mg/kg; in data set [5] it was 1.9 mg/kg.

For `CN1C(=O)CN=C(c2ccccc2)c2cc(Cl)ccc21` [Diazepam, reference compound], the ED20 in data set [2] (setting [7]) worked out at 1.1 mg/kg. Also, the ED50 in the data set with auditory pinna reflex came out at 4 mg/kg; in the data set on tactile pinna reflex, 187 mg/kg; in data set [3], 1.5 mg/kg; in data set [4], 0.49 mg/kg; in data set [5] it was 1 mg/kg.

In the case of `O=C1Nc2ccc(Cl)cc2C(c2ccccc2)=NC1O` (stereo not drawn) [Oxazepam, reference compound], the ED20 in data set [2] (setting [7]) turned out to be 2.7 mg/kg. For the same molecule, the ED50 in the data set on auditory pinna reflex was 2.9 mg/kg; in data set [3] it was 2.5 mg/kg; in data set [4] it was 2 mg/kg; in data set [5], 0.26 mg/kg.

`C1CCc2nnnn2CC1` [PTZ, pentylenetetrazole, reference compound]: the ED98 in data set [4] (intravenous PTZ challenge) was 40 mg/kg.

For `CN1C(=O)C(F)N=C(c2ccccc2F)c2cc(Br)ccc21` (stereo not drawn) [X=Br, Y=F, Z=CH3, 3-Fluoro-7-bromo-5-(2-fluorophenyl)-1,3-dihydro-1-methyl-2H-1,4-benzodiazepin-2-one], the ED50 in the data set with auditory pinna reflex was less than 4 mg/kg; in the data set on tactile pinna reflex it was less than 324 mg/kg; in data set [4], 0.06 mg/kg.

As to `O=C1Nc2ccc(Br)cc2C(c2ccccc2F)=NC1F` (stereo not drawn) [X=Br, Y=F, Z=H, 3-Fluoro-7-bromo-5-(2-fluorophenyl)-1,3-dihydro-2H-benzodiazepin-2-one], the ED50 with auditory pinna reflex is less than 4 mg/kg; in the data set with tactile pinna reflex, 300 mg/kg; in data set [4], 0.12 mg/kg.

`CN1C(=O)C(F)N=C(c2ccccc2)c2cc(Br)ccc21` (stereo not drawn) [X=Br, Y=H, Z=CH3, 3-Fluoro-7-bromo-1,3-dihydro-1-methyl-5-phenyl-2H-1,4-benzo-diazepin-2-one]: in data set [2] (setting [7]), the ED20 is 0.16 mg/kg. Moreover, the 50% effective dose (ED50) with auditory pinna reflex was determined as 1.3 mg/kg; in the data set with tactile pinna reflex, 300 mg/kg; in data set [3] it was 1.7 mg/kg; in data set [4], 0.22 mg/kg.

Consider `O=C1Nc2ccc(Br)cc2C(c2ccccc2)=NC1F` (stereo not drawn) [X=Br, Y=H, Z=H, 3-Fluoro-7-bromo-1,3-dihydro-5-phenyl-2H-1,4-benzodiazepin-2-one], for which the ED20 in data set [2] (setting [7]) is 0.04 mg/kg. For the same molecule, the ED50 in the data set on auditory pinna reflex was 1.2 mg/kg; in the data set on tactile pinna reflex it was 100 mg/kg; in data set [3] it was 0.15 mg/kg; in data set [4], 0.74 mg/kg; in data set [5], 0.05 mg/kg.

As for `CN1C(=O)C(F)N=C(c2ccccc2Cl)c2cc(Cl)ccc21` (stereo not drawn) [X=Cl, Y=Cl, Z=CH3, 3-Fluoro-7-chloro-5-(2-chlorophenyl)-1,3-dihydro-1-methyl-2H-1,4-benzodiazepin-2-one], the values for the ED50 (with auditory pinna reflex; in the data set on tactile pinna reflex; in data set [4]) were 60 mg/kg, greater than 324 mg/kg and 0.09 mg/kg, respectively.

With `O=C1Nc2ccc(Cl)cc2C(c2ccccc2Cl)=NC1F` (stereo not drawn) [X=Cl, Y=Cl, Z=H, 3-Fluoro-7-chloro-5-(2-chlorophenyl)-1,3-dihydro-2H-1,4-benzodiazepin-2-one], the ED20 in data set [2] (setting [7]) is 1.15 mg/kg. The ED50 in the data set with auditory pinna reflex is less than 4 mg/kg; in the data set with tactile pinna reflex it was greater than 324 mg/kg; in data set [4], 0.34 mg/kg; in data set [5], less than 0.33 mg/kg.

For the molecule `CN1C(=O)C(F)N=C(c2ccccc2F)c2cc(Cl)ccc21` (stereo not drawn) [X=Cl, Y=F, Z=CH3, 3-Fluoro-1,3-dihydro-1-methyl-7-chloro-5-(2-fluorophenyl)-2H-1,4-benzodiazepin-2-one], the ED20 in data set [2] (setting [7]) was determined as 0.05 mg/kg. Moreover, the ED50 with auditory pinna reflex was 7 mg/kg; with tactile pinna reflex it was 200 mg/kg; in data set [3], 0.24 mg/kg; in data set [4], 0.12 mg/kg; in data set [5], 0.06 mg/kg.

For `O=C1Nc2ccc(Cl)cc2C(c2ccccc2F)=NC1F` (stereo not drawn) [X=Cl, Y=F, Z=H, 3-Fluoro-1,3-dihydro-7-chloro-5-(2-fluorophenyl)-2H-1,4-benzodiazepin-2-one], the ED20 in data set [2] (setting [7]) came out at 0.48 mg/kg. For the same molecule, the ED50 with auditory pinna reflex came out at 12 mg/kg; with tactile pinna reflex, 200 mg/kg; in data set [4], 0.42 mg/kg.

Consider `CCN1C(=O)C(F)N=C(c2ccccc2)c2cc(Cl)ccc21` (stereo not drawn) [X=Cl, Y=H, Z=C2 H5, 3-Fluoro-1,3-dihydro-1-ethyl-7-chloro-5-phenyl-2H-1,4-benzodiazepin-2-one], for which the ED20 in data set [2] (setting [7]) came to 0.45 mg/kg. The ED50 was 12 mg/kg with auditory pinna reflex, greater than 324 mg/kg in the data set on tactile pinna reflex, 0.56 mg/kg in data set [4] and less than 0.24 mg/kg in data set [5].

For `C=CCN1C(=O)C(F)N=C(c2ccccc2)c2cc(Cl)ccc21` (stereo not drawn) [X=Cl, Y=H, Z=CH2 CHCH2, 3-Fluoro-1-(allyl)-7-chloro-5-phenyl-2H-1,4-benzodiazepin-2-one], the ED20 in data set [2] (setting [7]) worked out at 2.9 mg/kg. Moreover, the ED50 with auditory pinna reflex was 20 mg/kg; in the data set with tactile pinna reflex, 100 mg/kg; in data set [4], 6.1 mg/kg; in data set [5], less than 1 mg/kg.

Consider `CN1C(=O)C(F)N=C(c2ccccc2)c2cc(Cl)ccc21` (stereo not drawn) [X=Cl, Y=H, Z=CH3, 3-Fluoro-1,3-dihydro-1-methyl-7-chloro-5-phenyl-2H-1,4-benzodiazepin-2-one], for which the ED20 in data set [2] (setting [7]) stood at 0.25 mg/kg. Also, the ED50 came out at 5 mg/kg with auditory pinna reflex; 121 mg/kg in the data set on tactile pinna reflex; 0.45 mg/kg in data set [3]; 0.18 mg/kg in data set [4]; 0.25 mg/kg in data set [5].

As to `O=C1Nc2ccc(Cl)cc2C(c2ccccc2)=NC1F` (stereo not drawn) [X=Cl, Y=H, Z=H, 3-Fluoro-1,3-dihydro-7-chloro-5-phenyl-2H-1,4-benzodiazepin-2-one], the ED20 in data set [2] (1 h, 60 minutes (footnote d), read-out: MAST, ED20% (at 60 minutes)) was 0.37 mg/kg. Also, the ED50 in the data set on auditory pinna reflex stood at 2.6 mg/kg; in data set [4], 0.39 mg/kg; in data set [5], 0.1 mg/kg.

In the case of `CNC(=O)N1C(=O)C(F)N=C(c2ccccc2)c2cc(Cl)ccc21` (stereo not drawn) [X=Cl, Y=H, Z=[drawing 57]], the ED50 with auditory pinna reflex is less than 4 mg/kg; with tactile pinna reflex it was 36 mg/kg.

With `CCN(CC)CCN1C(=O)CN=C(c2ccccc2F)c2cc(Cl)ccc21` [flurazepam], the metabolism result in data set [6] is “metabolized in man and other animals by oxidative attack at the 3-position”.

Take `O=C1CN=C(c2ccccc2)c2cc([N+](=O)[O-])ccc2N1` [nitrazepam]: in data set [6], the metabolism result is “metabolized in man and other animals by oxidative attack at the 3-position”.
